Molecular target: T1, DXO (Mus musculus, UniProt O70348)
T1 sequence (O70348 1-397): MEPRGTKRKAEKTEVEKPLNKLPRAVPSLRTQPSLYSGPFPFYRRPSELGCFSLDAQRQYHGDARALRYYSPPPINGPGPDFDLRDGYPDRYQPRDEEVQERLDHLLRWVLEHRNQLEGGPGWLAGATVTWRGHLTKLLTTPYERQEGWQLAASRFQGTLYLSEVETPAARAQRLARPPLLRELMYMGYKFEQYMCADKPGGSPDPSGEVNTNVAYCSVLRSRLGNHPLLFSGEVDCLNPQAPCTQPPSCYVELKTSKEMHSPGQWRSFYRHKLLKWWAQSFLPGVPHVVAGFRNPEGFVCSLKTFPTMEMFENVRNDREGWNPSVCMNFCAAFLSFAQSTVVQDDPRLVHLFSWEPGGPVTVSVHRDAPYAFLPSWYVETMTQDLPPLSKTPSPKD
Test: crystal structure at […] Å
Type: binding

Nc1ncnc2c1ncn2[C@@H]1O[C@H](COP(=O)(O)O)[C@@H](OP(=O)(O)O)[C@H]1O [pAp, adenosine 3’,5’-bisphosphate]
Kd: 20 to 30 mM

Source: paper PMC6145842 (Biochemical and biophysical research communications, 2018)
